Data: ChEMBL document CHEMBL1781982, “Evaluation of antioxidant and antimicrobial activities of Bergenin and its derivatives obtained by chemoenzymatic synthesis” (Eur J Med Chem, 2011)
Activity calls are given as the source filed them. No cut-off for these calls is given here.

Assays:
Bacillus subtilis [1] = assay: Antibacterial activity against Bacillus subtilis MTCC 441 at 30 ug/disc after 24 hrs; assay type: functional; conditions: MTCC 441, 24 h, read-out: DIZ
Escherichia coli [2] = assay: Antibacterial activity against Escherichia coli MTCC 739 at 30 ug/disc after 24 hrs; assay type: functional; conditions: MTCC 739, 24 h, read-out: DIZ
Klebsiella pneumoniae [3] = assay: Antibacterial activity against Klebsiella pneumoniae MTCC 139 at 30 ug/disc after 24 hrs; assay type: functional; conditions: MTCC 139, 24 h, read-out: DIZ
Staphylococcus aureus [4] = assay: Antibacterial activity against Staphylococcus aureus MTCC 2940 at 30 ug/disc after 24 hrs; assay type: functional; conditions: MTCC 2940, 24 h, read-out: DIZ
[5] = system: Radical scavenging activity; assay: Antioxidant activity assessed as DPPH free radical scavenging activity at 200 to 1000 uM after 5 mins; assay type: functional
Klebsiella pneumoniae [6] = assay: Antibacterial activity against Klebsiella pneumoniae MTCC 139 at 2000 ug/ml after 24 hrs by agar-well diffusion method; assay type: functional; conditions: MTCC 139, 24 h, read-out: DIZ
[7] = target: Xanthine dehydrogenase/oxidase (Homo sapiens, UniProt P47989); assay: Inhibition of xanthine oxidase assessed as reduction of uric acid production from xanthine at 10 to 50 uM preincubated for 15 mins measured after 30 mins by spectrophotometry; conditions: 0.5 h
Chain of Xanthine dehydrogenase/oxidase (P47989 whole entry, the tested form may be a part): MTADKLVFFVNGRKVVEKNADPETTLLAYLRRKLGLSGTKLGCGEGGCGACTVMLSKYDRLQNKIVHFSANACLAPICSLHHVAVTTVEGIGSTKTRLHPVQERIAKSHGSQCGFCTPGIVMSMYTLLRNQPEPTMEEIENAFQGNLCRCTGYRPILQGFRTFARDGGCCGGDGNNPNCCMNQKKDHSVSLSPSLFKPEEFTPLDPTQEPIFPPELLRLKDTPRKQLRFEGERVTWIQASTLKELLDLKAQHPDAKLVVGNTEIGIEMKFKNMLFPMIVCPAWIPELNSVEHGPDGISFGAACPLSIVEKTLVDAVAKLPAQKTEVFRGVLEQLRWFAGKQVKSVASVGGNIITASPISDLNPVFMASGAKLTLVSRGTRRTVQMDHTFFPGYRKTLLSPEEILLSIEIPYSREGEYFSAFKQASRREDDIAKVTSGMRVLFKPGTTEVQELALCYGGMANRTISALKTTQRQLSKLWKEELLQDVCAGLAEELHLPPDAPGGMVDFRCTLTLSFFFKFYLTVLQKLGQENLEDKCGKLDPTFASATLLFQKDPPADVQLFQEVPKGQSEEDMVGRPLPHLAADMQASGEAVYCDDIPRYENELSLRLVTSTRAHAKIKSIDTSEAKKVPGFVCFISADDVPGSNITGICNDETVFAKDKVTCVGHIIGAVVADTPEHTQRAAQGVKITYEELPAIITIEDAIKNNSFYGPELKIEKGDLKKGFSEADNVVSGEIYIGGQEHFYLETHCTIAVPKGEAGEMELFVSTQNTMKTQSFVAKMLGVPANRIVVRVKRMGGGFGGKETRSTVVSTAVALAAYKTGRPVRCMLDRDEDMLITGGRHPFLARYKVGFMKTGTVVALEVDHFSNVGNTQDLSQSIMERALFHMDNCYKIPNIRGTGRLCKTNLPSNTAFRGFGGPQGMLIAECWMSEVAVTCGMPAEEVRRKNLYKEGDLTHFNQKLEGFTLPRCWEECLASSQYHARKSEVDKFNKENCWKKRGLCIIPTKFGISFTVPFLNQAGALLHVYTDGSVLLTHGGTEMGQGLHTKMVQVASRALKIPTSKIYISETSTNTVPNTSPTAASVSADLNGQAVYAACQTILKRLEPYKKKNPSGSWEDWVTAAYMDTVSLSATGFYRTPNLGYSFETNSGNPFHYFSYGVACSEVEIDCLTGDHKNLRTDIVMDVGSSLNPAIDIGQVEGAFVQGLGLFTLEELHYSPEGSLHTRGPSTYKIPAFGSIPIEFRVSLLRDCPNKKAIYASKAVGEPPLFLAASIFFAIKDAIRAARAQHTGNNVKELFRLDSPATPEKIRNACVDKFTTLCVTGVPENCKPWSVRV

Staphylococcus aureus [8] = assay: Antibacterial activity against Staphylococcus aureus MTCC 2940 at 2000 ug/ml after 24 hrs by agar-well diffusion method; assay type: functional; conditions: MTCC 2940, 24 h, read-out: DIZ
Bacillus subtilis [9] = assay: Antibacterial activity against Bacillus subtilis MTCC 441 at 2000 ug/ml after 24 hrs by agar-well diffusion method; assay type: functional; conditions: MTCC 441, 24 h, read-out: DIZ
Escherichia coli [10] = assay: Antibacterial activity against Escherichia coli MTCC 739 at 2000 ug/ml after 24 hrs by agar-well diffusion method; assay type: functional; conditions: MTCC 739, 24 h, read-out: DIZ

Compound	zone of inhibition at 30 µg/disc (Bacillus subtilis [1]) [mm]	zone of inhibition at 30 µg/disc (Escherichia coli [2]) [mm]	zone of inhibition at 30 µg/disc (Klebsiella pneumoniae [3]) [mm]	zone of inhibition at 30 µg/disc (Staphylococcus aureus [4]) [mm]	Activity [5]	zone of inhibition at 2000 µg/mL (Klebsiella pneumoniae [6]) [mm]	inhibition (INH) [7]	zone of inhibition at 2000 µg/mL (Staphylococcus aureus [8]) [mm]	zone of inhibition at 2000 µg/mL (Bacillus subtilis [9]) [mm]	zone of inhibition at 2000 µg/mL (Escherichia coli [10]) [mm]
NC[C@H]1O[C@H](O[C@H]2[C@H](O)[C@@H](O[C@H]3O[C@H](CO)[C@@H](O)[C@H](N)[C@H]3O)[C@H](N)C[C@@H]2N)[C@H](O)[C@@H](O)[C@@H]1O [KANAMYCIN]	23.2	18	19.5	25.1						
COc1c(O)cc2c(c1O)[C@@H]1O[C@H](CO)[C@@H](O)[C@H](O)[C@H]1OC2=O [BERGENIN]					Active	2.5	Not Active	2.1	1.3	3.3
COc1c(OC(C)=O)cc2c(c1OC(C)=O)[C@@H]1O[C@H](COC(C)=O)[C@@H](OC(C)=O)[C@H](OC(C)=O)[C@H]1OC2=O [BERGENIN PENTAACETATE]					Active	5.1		8.3	5.2	16.2
CCCCCCCCCCCCCC(=O)Oc1cc2c(c(OC(C)=O)c1OC)[C@@H]1O[C@H](COC(C)=O)[C@@H](OC(C)=O)[C@H](OC(C)=O)[C@H]1OC2=O					Active	3.1	Not Active	2.4	2.2	5.4
O=c1c(O)c(-c2ccc(O)c(O)c2)oc2cc(O)cc(O)c12 [QUERCETIN]							Active			
COc1c(O)cc2c(c1OC(C)=O)[C@@H]1O[C@H](COC(C)=O)[C@@H](OC(C)=O)[C@H](OC(C)=O)[C@H]1OC2=O					Active	3.3		3.2	4.3	14.1
COc1c(OC(=O)c2ccccc2)cc2c(c1OC(C)=O)[C@@H]1O[C@H](COC(C)=O)[C@@H](OC(C)=O)[C@H](OC(C)=O)[C@H]1OC2=O					Active	6.3	Not Active	5.5	4.3	9.3
CCCCCC(=O)Oc1cc2c(c(OC(C)=O)c1OC)[C@@H]1O[C@H](COC(C)=O)[C@@H](OC(C)=O)[C@H](OC(C)=O)[C@H]1OC2=O					Active	5.4	Not Active	6.4	7.4	21.4
CCCCCCCCCC(=O)Oc1cc2c(c(OC(C)=O)c1OC)[C@@H]1O[C@H](COC(C)=O)[C@@H](OC(C)=O)[C@H](OC(C)=O)[C@H]1OC2=O					Active	4.2	Not Active	3.2	3.9	6.2
